Experimental data: PMC12457078, “Inhibition of soluble epoxide hydrolase in endotoxin induced pig lung injury” (Frontiers in Pharmacology, 2025)
Where “and” joins values, the source holds several entries; their conditions need not be identical. Equal values may be shown once.

Tested on: sEH
Assay: oxylipin analysis, epoxide/diol ratios (target engagement)
Type: in vivo, pig
Parameters: 14,15-DiHETE: unit not given beside the values; 12,13-DiHOME / 9,10-DiHODE / 11,12-DiHETrE / 14,15-DiHETrE / 10,11-DiHDPE / 19,20-DiHDPE / 13-HODE / 5-HETE / 11-HETE / 12-HETE / 5-HEPE / 9(10)-EpOME / 12(13)-EpOME / EKODE / 11(12)-EpETE: unit not given here
Description: All animals were monitored with pulse oximetry, heart rate, ECG, systemic arterial blood pressure (ABP), pulmonary arterial pressure (PAP), central venous pressure (CVP) temperature, tidal volumes, respiratory rate and end tidal carbon dioxide. At baseline, and at 3 h, 6 h and at the end of the experiment, pulmonary capillary wedge pressure (PCWP) was measured together with arterial and venous blood gas analyses, as well as cardiac output calculations. Routine chemistry, including creatinine, bilirubin, glucose, electrolytes were collected at baseline and at the end of the experiment (Vetscan VS2®, Abaxis, Griesheim, Germany). Blood samples for measurement of AEPU plasma concentrations, as well as oxylipins (i.e., EpETrEs and their DiHETrE corresponding diols as well as related compounds with other polyunsaturated fatty acid precursors), were collected at baseline, 6 h and at the end of the experiment.
This meant nine subjects in each group to achieve 90% power of detecting a difference of this size given α = 0.05. Anticipating that not all experiments would reach completion, we used a sample size of 22. The results were analyzed using SPSS Statistics, version 24 (IBM Corp., Armonk, N.Y., United States). Normality was examined with the Shapiro-Wilk test, together with examination of histograms of data. Continuous variables were compared using Student’s t-test or Mann Whitney U test, as appropriate. Categorical variables were compared using Fischer’s exact test. Statistical significance was set at α < 0.05. Oxylipins with at least 80% of observations above limit of detection at both timepoints were included in pairwise comparisons of ratios and fold-change evaluations where observations below limit of detection (LOD) were substituted with 0.5 x LOD.

[1] = animal 22, time 6, sample Schwein38

## CCOCCOCCOCCCCCNC(=O)NC12CC3CC(CC(C3)C1)C2 [sEH-i]
[1]
  8(9)-EpETrE: <LOD
  8,9-DiHETE: <LOD
  8,9-DiHETrE: 0.0757
  8-HETE: 0.0546
  9(10)-EpODE: 0.22
  9(10)-EpOME: 0.65
  9,10,13-TriHOME: 4.88
  9,10-DiHODE: 0.22
  9,10-DiHOME: 1.64
  9,12,13-TriHOME: <LOD
  9-HETE: <LOD
  9-HODE: 3.67
  9-HOTrE: 0.7165
  9-oxo-ODE: <LOD
  10(11)-EpDPE: <LOD
  10,11-DiHDPE: 0.03
  11(12)-EpETE: 0.07931
  11(12)-EpETrE: 0.0369
  11,12-DiHETE: 0.0372
  11,12-DiHETrE: 0.80
  11-HETE: 0.10
  12(13)-EpODE: 0.32
  12(13)-EpOME: 1.76
  12,13-DiHODE: 0.31
  12,13-DiHOME: 3.15
  12-HEPE: 0.0345
  12-HETE: 0.2294
  12-oxo-ETE: 2.84
  13(14)-EpDPE: <LOD
  13,14-DiHDPE: 0.13
  13-HODE: 19.79
  13-HOTrE: 1.01
  13-oxo-ODE: <LOD
  14(15)-EpETE: <LOD
  14(15)-EpETrE: 0.09
  14,15-DiHETrE: 1.47
  15(16)-EpODE: 4.31
  15,16-DiHODE: 14.18
  15-HEPE: <LOD
  15-HETE: 0.27
  15-HETrE: 0.12
  15-oxo-ETE: 0.03
  16(17)-EpDPE: <LOD
  16,17-DiHDPE: 0.28
  17(18)-EpETE: <LOD
  17,18-DiHETE: 1.29
  17-HDoHE: <LOD
  19(20)-EpDPE: <LOD
  19,20-DiHDPE: 1.67
  20-HETE: 0.10
  EKODE: 0.30
  LTB4: <LOD
  PGD2: <LOD
  PGE2: <LOD
  PGF2a: 0.18
  Resolvin D1: <LOD
  Resolvin D2: <LOD
  TXB2: 0.45
Animal 22, time 6, sample Schwein38, high blanks
  14,15-DiHETE: 0.2142
Time 0, individual pigs
  5(6)-EpETrE: <LOD
  5,6-DiHETrE: <LOD
  5-HEPE: 0.12 and 0.10 and 0.0352 and 0.0647 and 0.04
  5-HETE: 0.3505 and 0.4442 and 0.2569 and 0.292 and 0.2018
  5-oxo-ETE: <LOD and 0.13 and 0.12
  7(8)-EpDPE: <LOD
  7,8-DiHDPE: <LOD
  8(9)-EpETE: <LOD
  8(9)-EpETrE: <LOD
  8,9-DiHETE: <LOD
  8,9-DiHETrE: 0.05 and 0.0422 and <LOD and 0.06
  8-HETE: 0.06 and 0.08 and 0.053 and 0.0429
  9(10)-EpODE: 0.38 and 0.25 and <LOD
  9(10)-EpOME: 0.98 and 0.51 and 0.65 and 0.99 and 0.62
  9,10-DiHODE: 0.22 and 0.21 and 0.10 and 0.16 and 0.12
  9,10-DiHOME: 1.61 and 1.57 and 0.78 and 1.46 and 0.91
  9-HETE: <LOD
  9-HODE: 8.25 and 8.10 and 3.23 and 6.40 and 4.24
  9-HOTrE: 1.27 and 1.28 and 0.79 and 0.81 and 0.6856
  9-oxo-ODE: <LOD
  10(11)-EpDPE: <LOD
  10,11-DiHDPE: <LOD
  11(12)-EpETE: 0.1253 and 0.08781 and 0.1311 and 0.1265 and 0.1028
  11(12)-EpETrE: <LOD and 0.02 and 0.0347 and 0.03
  11,12-DiHETE: <LOD and 0.0219
  11,12-DiHETrE: 0.32 and 0.22 and 0.18 and 0.46 and 0.23
  11-HETE: 0.13 and 0.12 and 0.05 and 0.0453
  12(13)-EpODE: 0.71 and 0.48 and <LOD and 0.61 and 0.44
  12(13)-EpOME: 3.24 and 1.63 and 2.31 and 2.28 and 1.75
  12,13-DiHODE: 0.45 and 0.48 and 0.25 and 0.29
  12,13-DiHOME: 6.90 and 6.98 and 3.85 and 4.66 and 3.09
  12-HEPE: 0.04 and <LOD and 0.0173
  12-HETE: 0.1828 and 0.38 and 0.09618 and 0.1256 and 0.03983
  12-oxo-ETE: <LOD
  13(14)-EpDPE: <LOD
  13,14-DiHDPE: 0.05 and 0.018 and <LOD and 0.06 and 0.0275
  13-HODE: 29.61 and 29.96 and 13.26 and 18.81 and 12.94
